Source: US20240293418A1, “COMBINATION THERAPY FOR TREATING CANCER” (Epizyme, Inc., priority 2016, published 2024)
Where two headings read alike, the source gives them in different places.

Columns and labels:
[1] = system: Jeko-1; assay: mantle cell lymphoma 7 day co-treatment model; assay type: cell-based
[2] = system: U266
Experimental: (§1) Assay plates were developed for endpoint analysis using Cell Titer Glo to measure ATP content, which was used as an indicator of cell viability. DMSO concentration was kept constant throughout the assay at less than 0.2% v/v.
(§2) Cell lines: The cell lines MI1.S and U266B1 were obtained from American Type Culture Collection (ATCC; Rockville, MD). […] All cells were maintained as instructed by the supplier and cultures were maintained at 37° C. in a humidified atmosphere and 5% CO2.
(§3) Loewe volumes greater than 1 denoted synergy and volumes <−1 denoted antagonism.

[3] = system: L-363
Experimental: as §1, §2, §3

[4] = system: MOLP-8; assay: 7-day co-treatment combination model (Cell Titer Glo); conditions: second agent + tazemetostat
Experimental: as §1
(§4) All cells were maintained as instructed by the supplier and cultures were maintained at 37° C. in a humidified atmosphere and 5% CO2.
as §3

[5] = system: LP-1; assay: as above
Experimental: as §1, §4, §3

[6] = system: KMS-28-BM; assay: as above
Experimental: as §1, §4, §3

[7] = system: MM1.S; assay: as above; conditions: Homo sapiens, 168 h, read-out: 7-day IC50
Experimental: as §1, §2, §3

[8] = system: RPMI-8226; assay: as above; conditions: second agent + tazemetostat, 7 day co-treatment
Experimental: as §1, §2, §3

[9] = system: U266; assay: 7 day pretreatment + 4-day co-treatment combination model (Cell Titer Glo)
Text: as §1
(§5) Cell lines: The cell lines MI1.S and U266B1 were obtained from American Type Culture Collection (ATCC; Rockville, MD). The cell lines LP-1, L-363 were obtained from Deutsche Sammlung von Mikroorganismen and Zellkulturen (DSMZ; Braunschweig, Germany) and the cell line KMS-28BM was obtained from Japanese Collection of Research Bioresources Cell Bank (JCRB, Osaka Japan). All cells were maintained as instructed by the supplier and cultures were maintained at 37° C. in a humidified atmosphere and 5% CO2.
as §3

[10] = system: MOLP-8; assay: as above; conditions: second agent + tazemetostat, MOLP-8 t(11;14)
Experimental: as §1, §4, §3

[11] = system: LP-1; assay: as above
Text: as §1, §5, §3

[12] = system: KMS-28-BM; assay: as above
Experimental: as §1, §4, §3

[13] = system: L-363; assay: as above
Text: as §1, §5, §3

[14] = system: MM1.S; assay: as above; conditions: Homo sapiens, MM1.S, 96 h, read-out: 4-day IC50
Text: as §1, §5, §3

[15] = system: Jeko-1; assay: mantle cell lymphoma 7 day pretreatment + 4-day co-treatment model (Cell Titer Glo)
Text: Cells were then co-treated in triplicate with a second compound, 3-fold serially diluted for additional 4 days. After this time, plates were developed for endpoint analysis using Cell Titer Glo to measure ATP content, which is used as an indicator of cell viability.
A Loewe volume greater than 1 denoted synergy. A Loewe volume between −1 and 1 denoted additivity, and a negative Loewe volume of less than −1, denoted antagonism.

[16] = second agent + tazemetostat, 7 day co-treatment
[17] = second agent + tazemetostat, 7 day pretreatment + 4-day co-treatment, Jeko-1

IC50 ([1]; Homo sapiens, 168 h, second agent alone, 7 day co-treatment model): 780 nM
IC50 [2]: > 10 µM
IC50 [3]: 3.5 nM
IC50 [7]: 7 nM
IC50 ([9]; Homo sapiens, U-266, 96 h, read-out: 4-day IC50): > 10 µM
IC50 [14]: 12 nM
IC50 ([15]; Homo sapiens, JeKo-1, 96 h, read-out: Second agent IC50): > 10 µM
Structure (SMILES): C[C@@H]1C[C@H]2[C@@H]3CCC4=CC(=O)C=C[C@]4(C)[C@@]3(F)[C@@H](O)C[C@]2(C)[C@@]1(O)C(=O)CO [Dexamethasone, dexamethasone]
Best CI [1, 16]: 0.16
Bliss Volume [1, 16]: 2.96
HSA Volume [1, 16]: 5.19
Loewe Volume [1, 16]: 4.32
Synergy Score [1, 16]: 4.36
combinatorial effect by Loewe volumes ([4]; 7-day co-treatment, MOLP-8 t(11;14)): S (Synergy)
Loewe volume ([4]; 7 day co-treatment, MOLP-8): 3.61
IC50 ([5]; Homo sapiens, LP-1, 168 h, read-out: 7-day IC50): 5 nM
combinatorial effect by Loewe volumes ([5]; second agent + tazemetostat, 7-day co-treatment, LP-1 t(4;14)): S (Synergy)
Loewe volume ([5]; second agent + tazemetostat, 7 day co-treatment, LP-1): 4.79
IC50 ([6]; KMS-28BM, 168 h, read-out: 7-day IC50): 2.7 nM
combinatorial effect by Loewe volumes ([6]; second agent + tazemetostat, 7-day co-treatment, KMS-28-BM t(4;14)): S (Synergy)
Loewe volume ([6]; second agent + tazemetostat, 7 day co-treatment, KMS-28-BM): 4.34
Loewe volume [8]: 1.73
combinatorial effect by Loewe volumes ([9]; second agent + tazemetostat, 7 day pretreatment + 4-day co-treatment, U266 t(11;14)): A (Additive)
combinatorial effect by Loewe volumes [10]: S (Synergy)
IC50 ([11]; Homo sapiens, LP-1, 96 h, read-out: 4-day IC50): 4 nM
combinatorial effect by Loewe volumes ([11]; second agent + tazemetostat, 7 day pretreatment + 4-day co-treatment, LP-1 t(4;14)): S (Synergy)
IC50 ([12]; KMS-28BM, 96 h, read-out: 4-day IC50): 6 nM
Loewe volume ([12]; second agent + tazemetostat, 7 day pretreatment + 4-day co-treatment, KMS-28-BM): 2.45
combinatorial effect by Loewe volumes ([12]; second agent + tazemetostat, 7 day pretreatment + 4-day co-treatment, KMS-28-BM t(4;14)): S (Synergy)
IC50 ([13]; Homo sapiens, L-363, 96 h, read-out: 4-day IC50): 7 nM
combinatorial effect by Loewe volumes ([13]; second agent + tazemetostat, 7 day pretreatment + 4-day co-treatment, L-363 t(20;22)): A (Additive)
Best CI [15, 17]: 0.22
Bliss Volume [15, 17]: 4.48
HSA Volume [15, 17]: 7.04
Loewe Volume [15, 17]: 6.91
Synergy Score [15, 17]: 6.33
